Results: patent US9944602B2, “Piperidinone herbicides” (E. I. DU PONT DE NEMOURS AND COMPANY, priority 2014, dated 2018)

How the values were obtained:
Type in all cases: in vivo
[1] = system: barnyardgrass (Echinochloa crus-galli); assay: Test A preemergence barnyardgrass; conditions: 0 to 100 scale; for Barnyardgrass plant response rating: 0 no effect, 100 complete control
Excerpt: (§1) Seeds of plant species selected from barnyardgrass (Echinochloa crus-galli), kochia (Kochia scoparia), ragweed (common ragweed, Ambrosia elatior), ryegrass, Italian (Italian ryegrass, Lolium multiflorum), crabgrass, large (large crabgrass, Digitaria sanguinalis), foxtail, giant (giant foxtail, Setaria faberii), morningglory (Ipomoea spp.), pigweed (Amaranthus retroflexus), velvetleaf (Abutilon theophrasti), wheat (Triticum aestivum), and corn (Zea mays) were planted into a blend of loam soil and sand and treated preemergence with a directed soil spray using test chemicals formulated in a non-phytotoxic solvent mixture which included a surfactant.
(§2) At the same time, plants selected from these crop and weed species and also blackgrass (Alopecurus myosuroides), and galium (catchweed bedstraw, Galium aparine) were planted in pots containing the same blend of loam soil and sand and treated with postemergence applications of test chemicals formulated in the same manner. Plants ranged in height from 2 to 10 cm and were in the one- to two-leaf stage for the postemergence treatment. Treated plants and untreated controls were maintained in a greenhouse for approximately 10 d, after which time all treated plants were compared to untreated controls and visually evaluated for injury. Plant response ratings, summarized in Table A, are based on a 0 to 100 scale where 0 is no effect and 100 is complete control. A dash (-) response means no test result.

[2] = system: kochia (Kochia scoparia); assay: Test A preemergence kochia; conditions: 0 to 100 scale, 0 no effect, 100 complete control
Excerpt: as §1, §2

[3] = system: ragweed (common ragweed, Ambrosia elatior); assay: Test A preemergence ragweed; conditions: 0 to 100 scale, 0 no effect, 100 complete control
Excerpt: as §1, §2

[4] = system: ryegrass, Italian (Italian ryegrass, Lolium multiflorum); assay: Test A preemergence ryegrass, Italian; conditions: 0 to 100 scale, 0 no effect, 100 complete control
Excerpt: as §1, §2

[5] = system: foxtail, giant (giant foxtail, Setaria faberii); assay: Test A preemergence foxtail, giant; conditions: 0 to 100 scale, 0 no effect, 100 complete control
Excerpt: as §1, §2

[6] = system: pigweed (Amaranthus retroflexus); assay: Test A preemergence pigweed; conditions: 0 to 100 scale, 0 no effect, 100 complete control
Excerpt: as §1, §2

[7] = system: barnyardgrass (Echinochloa crus-galli); assay: Test A postemergence barnyardgrass; conditions: 0 to 100 scale, 0 is no effect, 100 is complete control
Excerpt: as §1, §2

[8] = system: kochia (Kochia scoparia); assay: Test A postemergence kochia; conditions: 0 to 100 scale, 0 is no effect, 100 is complete control
Excerpt: as §1, §2

[9] = system: ragweed (common ragweed, Ambrosia elatior); assay: Test A postemergence ragweed; conditions: 0 to 100 scale, 0 is no effect, 100 is complete control
Excerpt: as §1, §2

[10] = system: ryegrass, Italian (Italian ryegrass, Lolium multiflorum); assay: Test A postemergence ryegrass, Italian; conditions: 0 to 100 scale, 0 is no effect, 100 is complete control
Excerpt: as §1, §2

[11] = system: foxtail, giant (giant foxtail, Setaria faberii); assay: Test A postemergence foxtail, giant; conditions: 0 to 100 scale, 0 is no effect, 100 is complete control
Excerpt: as §1, §2

[12] = system: pigweed (Amaranthus retroflexus); assay: Test A postemergence pigweed; conditions: 0 to 100 scale, 0 is no effect, 100 is complete control
Excerpt: as §1, §2

[13] = system: wheat (Triticum aestivum); assay: Test A postemergence wheat; conditions: 0 to 100 scale, 0 is no effect, 100 is complete control
Excerpt: as §1, §2

[14] = system: corn (Zea mays); assay: Test A postemergence corn; conditions: 0 to 100 scale, 0 is no effect, 100 is complete control
Excerpt: as §1, §2

[15] = system: blackgrass (Alopecurus myosuroides); assay: Test A postemergence blackgrass; conditions: 0 to 100 scale, 0 is no effect, 100 is complete control
Excerpt: as §1, §2

[16] = system: galium (catchweed bedstraw, Galium aparine); assay: Test A postemergence galium; conditions: 0 to 100 scale, 0 is no effect, 100 is complete control
Excerpt: as §1, §2

[17] = system: rice (Oryza sativa); assay: Test B flooded paddy test rice; conditions: Table B, Flood, scale 0 to 100
Method: (§3) Plant species in the flooded paddy test selected from rice (Oryza sativa), sedge, umbrella (small-flower umbrella sedge, Cyperus difformis), ducksalad (Heteranthera limosa), and barnyardgrass (Echinochloa crus-galli) were grown to the 2-leaf stage for testing. At the time of treatment, test pots were flooded to 3 cm above the soil surface, treated by application of test compounds directly to the paddy water, and then maintained at that water depth for the duration of the test. Treated plants and controls were maintained in a greenhouse for 13 to 15 d, after which time all species were compared to controls and visually evaluated. […] A dash (-) response means no test result.

[18] = system: sedge, umbrella (small-flower umbrella sedge, Cyperus difformis); assay: Test B flooded paddy test sedge, umbrella; conditions: Table B, Flood, scale 0 to 100
Method: as §3

[19] = system: ducksalad (Heteranthera limosa); assay: Test B flooded paddy test ducksalad; conditions: Table B, Flood, scale 0 to 100
Method: as §3

[20] = system: barnyardgrass (Echinochloa crus-galli); assay: Test B flooded paddy test barnyardgrass; conditions: Table B, Flood, scale 0 to 100
Method: as §3

Row | Structure (SMILES) | Barnyardgrass plant response rating ([1]; 125 g ai/ha) | Kochia plant response rating ([2]; 125 g ai/ha) | Kochia plant response rating ([2]; 500 g ai/ha) | Ragweed plant response rating ([3]; 125 g ai/ha) | Ragweed plant response rating ([3]; 500 g ai/ha) | Ryegrass, Italian plant response rating ([4]; 125 g ai/ha) | Ryegrass, Italian plant response rating ([4]; 500 g ai/ha) | Foxtail, Giant plant response rating ([5]; 125 g ai/ha) | Foxtail, Giant plant response rating ([5]; 500 g ai/ha) | Pigweed plant response rating ([6]; 125 g ai/ha) | Pigweed plant response rating ([6]; 500 g ai/ha) | Plant response rating, Barnyardgrass ([7]; 125 g ai/ha) | Plant response rating, Barnyardgrass ([7]; 500 g ai/ha) | Plant response rating, Kochia ([8]; 125 g ai/ha) | Plant response rating, Kochia ([8]; 500 g ai/ha) | Plant response rating, Ragweed ([9]; 125 g ai/ha) | Plant response rating, Ragweed ([9]; 500 g ai/ha) | Plant response rating, Ryegrass, Italian ([10]; 125 g ai/ha) | Plant response rating, Ryegrass, Italian ([10]; 500 g ai/ha) | Plant response rating, Foxtail, Giant ([11]; 125 g ai/ha) | further results
1 | O=C1NCCC(c2cccc(OC(F)F)c2)C1C(=O)Nc1cccc(F)c1F (racemic) [Compound 46] | 50 | 0 | 0 | 0 | 0 | 0 | 20 | 90 | 90 | 0 | 0 | 60 | 90 | 0 | 0 | 0 | 0 | 0 | 0 | 20 | Barnyardgrass plant response rating ([1]; 500 g ai/ha): 90; Plant response rating, Foxtail, Giant ([11]; 500 g ai/ha): 80; Plant response rating, Pigweed ([12]; 125 g ai/ha): 0; Plant response rating, Pigweed ([12]; 500 g ai/ha): 0; Plant response rating, Wheat ([13]; 125 g ai/ha): 0; Plant response rating, Wheat ([13]; 500 g ai/ha): 50; Plant response rating, Corn ([14]; 125 g ai/ha): 0; Plant response rating, Corn ([14]; 500 g ai/ha): 50; Plant response rating, Blackgrass ([15]; 125 g ai/ha): 0; Plant response rating, Blackgrass ([15]; 500 g ai/ha): 40; Plant response rating, Galium ([16]; 125 g ai/ha): 0; Plant response rating, Galium ([16]; 500 g ai/ha): 0; Plant response rating ([17]; 500 g ai/ha): 0; Plant response rating ([18]; 500 g ai/ha): 0; Plant response rating ([19]; 500 g ai/ha): 100; Plant response rating ([20]; 500 g ai/ha): 65
2 | O=C1NCC[C@@H](c2ccc(C(F)(F)F)cc2)[C@@H]1C(=O)Nc1ccc(F)c(F)c1F [Compound 55] | 0 | 0 | 0 | 0 | 0 | 0 | 0 | 0 | 0 | 0 | 0 | 0 | 0 | 0 | 0 | 0 | 0 | 0 | 0 | 0 | Barnyardgrass plant response rating ([1]; 500 g ai/ha): 0; Plant response rating, Foxtail, Giant ([11]; 500 g ai/ha): 0; Plant response rating, Pigweed ([12]; 125 g ai/ha): 0; Plant response rating, Pigweed ([12]; 500 g ai/ha): 0; Plant response rating, Wheat ([13]; 125 g ai/ha): 0; Plant response rating, Wheat ([13]; 500 g ai/ha): 0; Plant response rating, Corn ([14]; 125 g ai/ha): 0; Plant response rating, Corn ([14]; 500 g ai/ha): 0; Plant response rating, Blackgrass ([15]; 125 g ai/ha): 0; Plant response rating, Blackgrass ([15]; 500 g ai/ha): 0; Plant response rating, Galium ([16]; 125 g ai/ha): 0; Plant response rating, Galium ([16]; 500 g ai/ha): 0; Plant response rating ([17]; 250 g ai/ha): 0; Plant response rating ([18]; 250 g ai/ha): 0; Plant response rating ([19]; 250 g ai/ha): 0; Plant response rating ([20]; 250 g ai/ha): 0
3 | O=C1NCCC(c2ccccc2C(F)(F)F)C1C(=O)Nc1ccccc1C(F)(F)F (racemic) [Compound 7] | 0 | 0 | 0 | 0 | 0 | 0 | 0 | 0 | 0 | 0 | 0 | 0 | 0 | 0 | 0 | 0 | 0 | 0 | 0 | 0 | Plant response rating, Barnyardgrass ([1]; 500 g ai/ha, 0 is no effect, 100 is complete control): 0; Plant response rating, Foxtail, Giant ([11]; 500 g ai/ha): 0; Plant response rating, Pigweed ([12]; 125 g ai/ha): 0; Plant response rating, Pigweed ([12]; 500 g ai/ha): 0; Plant response rating, Wheat ([13]; 125 g ai/ha): 0; Plant response rating, Wheat ([13]; 500 g ai/ha): 0; Plant response rating, Corn ([14]; 125 g ai/ha): 0; Plant response rating, Corn ([14]; 500 g ai/ha): 0; Plant response rating, Blackgrass ([15]; 125 g ai/ha): 0; Plant response rating, Blackgrass ([15]; 500 g ai/ha): 0; Plant response rating, Galium ([16]; 125 g ai/ha): 0; Plant response rating, Galium ([16]; 500 g ai/ha): 0; Plant response rating ([17]; 1000 g ai/ha): 0; Plant response rating ([18]; 1000 g ai/ha): 0; Plant response rating ([19]; 1000 g ai/ha): 0; Plant response rating ([20]; 1000 g ai/ha): 0
